This is an account of results in PubChem BioAssay AID330 (DTP/NCI, 2004).

This experiment deals with P388 leukemia ip, CD2F1 mice, survival T/C. As to the kind of experiment: NCI In Vivo Anticancer Drug Screen. Data for tumor model P388 Leukemia (intraperitoneal) in CD2F1 (CDF1) mice. Particulars: endpoint: median survival time, higher = longer survival. An outline of the steps:
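Mice carrying the transplanted tumor received test compound or vehicle. Survival was recorded in each group, and the value is the treated-group measurement divided by that of the vehicle-treated control group.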

Where [1] appears, read: dose: 60.0 mg/kg/injection, schedule: Q01DX005 (ip), vehicle: saline with Tween-80.
Where [2] appears, read: dose: 120.0 mg/kg/injection, schedule: Q01DX005 (ip), vehicle: saline with Tween-80.
Where [3] appears, read: dose: 240.0 mg/kg/injection, schedule: Q01DX005 (ip), vehicle: saline with Tween-80.
Setting [4] is: dose: 50.0 mg/kg/injection, schedule: Q01DX009 (ip), vehicle: Klucel (hydroxypropylcellulose) (HPC).
[5] abbreviates: dose: 100.0 mg/kg/injection, schedule: Q01DX009 (ip), vehicle: Klucel (hydroxypropylcellulose) (HPC).
Setting [6] is: dose: 200.0 mg/kg/injection, schedule: Q01DX009 (ip), vehicle: Klucel (hydroxypropylcellulose) (HPC).
Where [7] appears, read: dose: 50.0 mg/kg/injection, schedule: Q01DX005 (ip), vehicle: Klucel (hydroxypropylcellulose) (HPC).
Setting [8] is: dose: 100.0 mg/kg/injection, schedule: Q01DX005 (ip), vehicle: Klucel (hydroxypropylcellulose) (HPC).
[9] abbreviates: dose: 200.0 mg/kg/injection, schedule: Q01DX005 (ip), vehicle: Klucel (hydroxypropylcellulose) (HPC).
Setting [10] is: dose: 50.0 mg/kg/injection, schedule: Q01DX005 (ip), vehicle: saline with Tween-80.
Setting [11] is: dose: 100.0 mg/kg/injection, schedule: Q01DX005 (ip), vehicle: saline with Tween-80.
The mark [12] stands for this setting: dose: 200.0 mg/kg/injection, schedule: Q01DX005 (ip), vehicle: saline with Tween-80.
[13] abbreviates: dose: 50.0 mg/kg/injection, schedule: Q01DX009 (ip), vehicle: saline.
[14] abbreviates: dose: 60.0 mg/kg/injection, schedule: Q01DX005 (ip), vehicle: Klucel (hydroxypropylcellulose) (HPC).
Where [15] appears, read: dose: 120.0 mg/kg/injection, schedule: Q01DX005 (ip), vehicle: Klucel (hydroxypropylcellulose) (HPC).
Setting [16] is: dose: 240.0 mg/kg/injection, schedule: Q01DX005 (ip), vehicle: Klucel (hydroxypropylcellulose) (HPC).

“And” between values parts separate entries of the source, which are not always exact repeats. Equal entries are not always repeated. Inconclusive results and toxic doses are left out.

In the case of `COC(=O)/C(=C\C[C@@H]1CCCC[C@H]1O)CC[Se]c1ccccc1`, the T/C (dose: 50.0 mg/kg/injection, schedule: Q01DX009 (ip), vehicle: distilled water + Tween-80 + alcohol) is 108 % of control; the T/C (dose: 100.0 mg/kg/injection, schedule: Q01DX009 (ip), vehicle: distilled water + Tween-80 + alcohol) was 103 % of control; the T/C (dose: 200.0 mg/kg/injection, schedule: Q01DX009 (ip), vehicle: distilled water + Tween-80 + alcohol) was 98 % of control.

`CS(C)=C1C(=O)C(=O)C(=S(C)C)C(=O)C1=O`: the T/C is 107 % of control under setting [1], 104 % of control under setting [2] and 100 % of control under setting [3].

Turning to `O=C1CSC(c2ccccc2Br)N1c1nncs1` (stereo not drawn), the T/C reads like this: under setting [1], 101 % of control; under setting [2], 97 % of control; under setting [3], 93 % of control.

For the compound `O=c1[nH]cnc2cc(N3CCOCC3)c([N+](=O)[O-])cc12`, the T/C is 105 % of control (dose: 50.0 mg/kg/injection, schedule: Q04DX003 (ip), vehicle: saline with Tween-80); 100 % of control (dose: 100.0 mg/kg/injection, schedule: Q04DX003 (ip), vehicle: saline with Tween-80); 100 % of control (dose: 200.0 mg/kg/injection, schedule: Q04DX003 (ip), vehicle: saline with Tween-80).

With `CC(=O)Nc1c(Br)cc(C)cc1Br`, the T/C is, setting by setting: under setting [4], 94 % of control; under setting [5], 102 % of control; under setting [6], 100 % of control.

As to `COC(=O)/N=c1\cc(N2CC=CCC2)nc(N)n1O`, the T/C reads like this: under setting [1], 94 % of control; under setting [2], 94 % of control; under setting [3], 91 % of control.

Regarding `c1ccc(-c2cnn3nnnc3n2)cc1`, the T/C runs as follows: (dose: 100.0 mg/kg/injection, schedule: Q01DX001 (ip), vehicle: saline) 104 % of control; (dose: 200.0 mg/kg/injection, schedule: Q01DX001 (ip), vehicle: saline) 102 % of control; (dose: 400.0 mg/kg/injection, schedule: Q01DX001 (ip), vehicle: saline) 101 % of control.

Consider `CNCCN=c1ccc2c3c1c(O)c1c(O)ccc(=O)c1c3[nH]n2CCNCCO`, for which the T/C reads like this: (dose: 1.56 mg/kg/injection, schedule: Q04DX002 (ip), vehicle: water) 167 % of control and 186 % of control; (dose: 3.12 mg/kg/injection, schedule: Q04DX002 (ip), vehicle: water) 177 % of control and 268 % of control; (dose: 6.25 mg/kg/injection, schedule: Q04DX002 (ip), vehicle: water) 275 % of control and 277 % of control; (dose: 12.5 mg/kg/injection, schedule: Q04DX002 (ip), vehicle: water) 275 % of control and 277 % of control; (dose: 25.0 mg/kg/injection, schedule: Q04DX002 (ip), vehicle: water) 90 % of control.

Regarding `CCc1nc2c(cnn2C)c(=O)n1-c1ccccc1`, the T/C under setting [7] was 101 % of control, the T/C under setting [8] was 100 % of control and the T/C under setting [9] is 96 % of control.

For `CN(O)C(=O)CNC(=O)OC(C)(C)C`, the T/C under setting [10] is 100 % of control; the T/C under setting [11] is 98 % of control; the T/C under setting [12] was 100 % of control; the T/C (dose: 400.0 mg/kg/injection, schedule: Q01DX005 (ip), vehicle: saline with Tween-80) was 105 % of control.

On to `O=C1CCC2(O)[C@@H]3Cc4ccc(O)c5c4[C@]2(CCN3Cc2ccoc2)C1O5` (stereo partly drawn), for which the T/C under setting [13] was 124 % of control; the T/C (dose: 66.0 mg/kg/injection, schedule: Q01DX009 (ip), vehicle: saline) was 107 % of control and 91 % of control; the T/C (dose: 100.0 mg/kg/injection, schedule: Q01DX009 (ip), vehicle: saline) is 105 % of control and 121 % of control and 96 % of control; the T/C (dose: 150.0 mg/kg/injection, schedule: Q01DX009 (ip), vehicle: saline) is 98 % of control and 116 % of control.

For `CC(=O)Nc1cc(NC(C)=O)cc(C(=O)O)c1`, the T/C runs as follows: under setting [14], 90 % of control; under setting [15], 90 % of control; under setting [16], 90 % of control.

Take `COC(=O)Nc1nc2ccc(SC)cc2c(=O)[nH]1`: the T/C under setting [4] is 103 % of control and 105 % of control; the T/C under setting [5] is 113 % of control.

As to `O=C(Oc1ccc(Cl)cc1Cl)c1ccc([N+](=O)[O-])cc1`, the T/C runs as follows: under setting [5], 96 % of control; under setting [6], 87 % of control; (dose: 400.0 mg/kg/injection, schedule: Q01DX009 (ip), vehicle: Klucel (hydroxypropylcellulose) (HPC)) 96 % of control.

As to `C=CCN(N=Nc1ccc(Cl)cc1)c1ccc(Cl)cc1`, the T/C is, setting by setting: (dose: 25.0 mg/kg/injection, schedule: Q01DX009 (ip), vehicle: saline with Tween-80) 104 % of control and 91 % of control; (dose: 50.0 mg/kg/injection, schedule: Q01DX009 (ip), vehicle: saline with Tween-80) 107 % of control and 117 % of control; (dose: 100.0 mg/kg/injection, schedule: Q01DX009 (ip), vehicle: saline with Tween-80) 108 % of control and 111 % of control; (dose: 200.0 mg/kg/injection, schedule: Q01DX009 (ip), vehicle: saline with Tween-80) 110 % of control and 117 % of control and 118 % of control.

Regarding `COc1cccc2c1OC(=O)NC2O` (stereo not drawn), the T/C runs as follows: (dose: 25.0 mg/kg/injection, schedule: Q01DX005 (ip), vehicle: distilled water + Tween-80) 103 % of control; (dose: 50.0 mg/kg/injection, schedule: Q01DX005 (ip), vehicle: distilled water + Tween-80) 107 % of control; under setting [10], 102 % of control; (dose: 100.0 mg/kg/injection, schedule: Q01DX005 (ip), vehicle: distilled water + Tween-80) 121 % of control; under setting [11], 122 % of control; (dose: 200.0 mg/kg/injection, schedule: Q01DX005 (ip), vehicle: distilled water + Tween-80) 110 % of control. The T/C under setting [12] is 112 % of control.

`Cc1cc(OCC(=O)N/N=C/c2ccc(N(CCCl)CCCl)cc2)c2c(=O)c3ccccc3oc2c1`: the T/C was 94 % of control under setting [14], 117 % of control under setting [15] and 88 % of control under setting [16].

On to `CCOC1=C(C#N)C(SC)=CS(C)(=O)=C1` (stereo not drawn), for which the T/C was 98 % of control (dose: 50.0 mg/kg/injection, schedule: Q04DX003 (ip), vehicle: Klucel (hydroxypropylcellulose) (HPC)); 97 % of control (dose: 100.0 mg/kg/injection, schedule: Q04DX003 (ip), vehicle: Klucel (hydroxypropylcellulose) (HPC)); 101 % of control (dose: 200.0 mg/kg/injection, schedule: Q04DX003 (ip), vehicle: Klucel (hydroxypropylcellulose) (HPC)).

Regarding `OCC(O)CNc1ncnc2cc(Cl)ccc12` (stereo not drawn), the T/C is 100 % of control (dose: 25.0 mg/kg/injection, schedule: Q01DX005 (ip), vehicle: Klucel (hydroxypropylcellulose) (HPC)); 96 % of control under setting [7]; 102 % of control under setting [8]; 105 % of control under setting [9].

For the compound `O=S1(=O)C2C=CC1CCCC2`, the T/C was 95 % of control (dose: 12.5 mg/kg/injection, schedule: Q01DX009 (ip), vehicle: saline); 90 % of control (dose: 25.0 mg/kg/injection, schedule: Q01DX009 (ip), vehicle: saline); 92 % of control and 96 % of control under setting [13].

On to `CCCC(N(C)C)P(=O)(O)O` (stereo not drawn), for which the T/C was 105 % of control (dose: 100.0 mg/kg/injection, schedule: Q04DX003 (ip), vehicle: saline); 105 % of control (dose: 200.0 mg/kg/injection, schedule: Q04DX003 (ip), vehicle: saline); 100 % of control (dose: 400.0 mg/kg/injection, schedule: Q04DX003 (ip), vehicle: saline).

As to `CC(=O)Nc1ccccc1C(=O)C(=O)Nc1ccccc1C(=O)NN`, the T/C is, setting by setting: under setting [1], 106 % of control; under setting [2], 89 % of control; under setting [3], 87 % of control.

As for `C=CCO[C@H]1CO[C@H]2[C@@H]1OC[C@H]2OCC=C`, the T/C is, setting by setting: under setting [10], 96 % of control; under setting [11], 97 % of control; under setting [12], 99 % of control.
